Source: patent US20120178180A1, “METHODS FOR THE IDENTIFICATION OF ZAP-70 INTERACTING MOLECULES AND FOR THE PURIFICATION OF ZAP-70” (priority 2006, published 2012)

Molecular target: T1, phosphorylated ZAP-70 (Homo sapiens, UniProt P43403)
T1 construct: endogenous in cells; host or cells: Jurkat cells (clone E6-1, ATCC TIB-152), pervanadate treated
T1 sequence (P43403 1-619): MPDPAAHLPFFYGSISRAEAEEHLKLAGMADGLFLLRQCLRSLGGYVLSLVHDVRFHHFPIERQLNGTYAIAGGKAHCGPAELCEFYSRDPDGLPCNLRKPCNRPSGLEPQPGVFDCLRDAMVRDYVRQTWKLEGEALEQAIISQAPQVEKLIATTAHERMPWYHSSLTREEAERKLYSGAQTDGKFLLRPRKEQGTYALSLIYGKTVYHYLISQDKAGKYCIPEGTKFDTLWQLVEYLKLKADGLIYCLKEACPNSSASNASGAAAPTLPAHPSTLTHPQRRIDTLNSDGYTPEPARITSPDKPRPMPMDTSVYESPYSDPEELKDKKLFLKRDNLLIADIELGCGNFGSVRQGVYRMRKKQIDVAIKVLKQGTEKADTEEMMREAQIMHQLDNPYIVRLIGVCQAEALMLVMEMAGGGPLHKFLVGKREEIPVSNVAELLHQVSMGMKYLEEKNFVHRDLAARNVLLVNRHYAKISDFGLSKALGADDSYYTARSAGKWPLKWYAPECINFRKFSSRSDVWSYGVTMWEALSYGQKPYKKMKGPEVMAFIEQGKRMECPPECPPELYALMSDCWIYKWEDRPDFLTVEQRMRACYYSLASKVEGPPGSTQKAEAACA
Assay: Drug pulldown with immobilized aminopyrido-pyrimidin ligand 24 and Western blot analysis
Type: binding
Conditions: lysates of non-treated versus pervanadate treated Jurkat cells; Western blot, FIG. 2
Method: As biological material cell lysates prepared from non-treated or pervanadate treated Jurkat cells were used. The drug pulldown experiment was performed as described in Example 2 with lysate samples containing 50 mg of protein. Input lysate, flowthrough (non-bound fraction) and SDS-eluates (bound fraction) were separated on a SDS-polyacrylamide gel and transferred to a membrane. The blot was probed first with a general anti-ZAP-70 antibody (2A) and then with an antiphospho-ZAP-70 antibody (2B). Secondary detection antibodies were labeled with fluorescent dyes for detection with the Odyssey infrared imaging system. […]
For Western blot analysis bound proteins were eluted from the affinity matrix and subsequently separated by SDS-Polyacrylamide gel electrophoresis. ZAP-70 was detected with a general monoclonal antibody binding to the non-phosphorylated aminoterminal part of the protein and in addition with a phospho-specific antibody (FIG. 2). […]
Jurkat cells were homogenized in a Potter S homogenizer in lysis buffer: 50 mM Tris-HCl, 0.8% NP40, 5% glycerol, 150 mM NaCl, 1.5 mM MgCl2, 25 mM NaF, 1 mM sodium vanadate, 1 mM DTT, pH 7.5. […] The supernatant was transferred again to a fresh 50 ml falcon tube, the protein concentration was determined by a Bradford assay (BioRad) and samples containing 50 mg of protein per aliquot were prepared. […]

Q: Which “pulldown of ZAP-70 by the immobilized ligand” value does the source give for `Cn1c(=O)c(-c2c(Cl)cccc2Cl)cc2cnc(Nc3ccc(CN)cc3)cc21` [aminopyrido-pyrimidin ligand 24, 7-(4-Aminomethyl-phenylamino)-3-(2,6-dichloro-phenyl)-1-methyl-1H-[1,6]naphthyridin-2-one] here?
A: Its value is “preferentially pulls down a phosphorylated form of ZAP-70”.
